This note sets out measurements from ChEMBL document CHEMBL5120851, “Discovery of indirubin-3'-aminooxy-acetamide derivatives as potent and selective FLT3/D835Y mutant kinase inhibitors for acute myeloid leukemia” (Eur J Med Chem, 2022).

In assay [1] the target is Receptor-type tyrosine-protein kinase FLT3 (Homo sapiens, UniProt P36888, D835Y). Nature of the assay: Inhibition of human recombinant His-tagged FLT3/D835Y mutant expressed in baculovirus expression system incubated for 30 mins in presence of ATP by HTRF analysis. (TR-FRET usually uses a lanthanide donor and a delayed reading to cut background.)
For the next assay, the system named is MV4-11. Description: Antiproliferative activity against human MV4-11 cells assessed as inhibition of cell growth incubated for 72 hrs by EZ-Cytox colorimetric assay. It is filed as functional.
Assay [2] deals with T1, Receptor-type tyrosine-protein kinase FLT3 (Homo sapiens, UniProt P36888).
T1 sequence (P36888 whole entry): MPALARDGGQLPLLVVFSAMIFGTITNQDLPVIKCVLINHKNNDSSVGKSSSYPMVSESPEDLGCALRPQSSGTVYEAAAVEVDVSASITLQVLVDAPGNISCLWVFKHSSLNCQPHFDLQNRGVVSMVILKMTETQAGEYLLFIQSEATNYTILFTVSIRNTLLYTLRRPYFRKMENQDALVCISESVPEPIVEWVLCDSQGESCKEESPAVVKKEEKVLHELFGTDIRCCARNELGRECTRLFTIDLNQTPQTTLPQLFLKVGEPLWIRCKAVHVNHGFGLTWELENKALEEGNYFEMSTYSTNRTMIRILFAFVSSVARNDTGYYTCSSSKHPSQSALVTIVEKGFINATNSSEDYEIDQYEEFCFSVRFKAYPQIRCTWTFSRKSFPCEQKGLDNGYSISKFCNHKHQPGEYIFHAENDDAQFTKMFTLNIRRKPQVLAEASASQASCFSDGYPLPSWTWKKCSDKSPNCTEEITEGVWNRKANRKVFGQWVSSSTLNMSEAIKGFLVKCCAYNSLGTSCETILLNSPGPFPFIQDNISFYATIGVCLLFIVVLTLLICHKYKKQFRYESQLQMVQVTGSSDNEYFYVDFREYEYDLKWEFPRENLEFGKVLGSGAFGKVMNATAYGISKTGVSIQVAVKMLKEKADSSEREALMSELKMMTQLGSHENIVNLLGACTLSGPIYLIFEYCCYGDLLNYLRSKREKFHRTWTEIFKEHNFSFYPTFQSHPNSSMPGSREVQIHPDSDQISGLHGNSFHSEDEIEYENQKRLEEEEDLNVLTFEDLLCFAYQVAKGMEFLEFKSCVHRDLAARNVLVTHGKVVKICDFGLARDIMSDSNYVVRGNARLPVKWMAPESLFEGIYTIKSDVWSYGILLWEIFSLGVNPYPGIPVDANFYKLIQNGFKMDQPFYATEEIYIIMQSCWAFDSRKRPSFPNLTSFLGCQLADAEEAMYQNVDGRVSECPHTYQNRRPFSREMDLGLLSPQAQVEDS
Nature of the assay: Inhibition of human recombinant His-tagged FLT3 kinase domain (564 to 958 residues) expressed in baculovirus expression system incubated for 30 mins in presence of ATP by HTRF analysis.

The test system of assay [3] is MOLM-14. Description: Antiproliferative activity against human MOLM-14 cells assessed as inhibition of cell growth incubated for 72 hrs by EZ-Cytox colorimetric assay. The class given is functional.
In assay [4] the test system is MOLM-14. Description: Antiproliferative activity against human MOLM-14 cells harboring FLT3 ITD/D835Y double mutant assessed as inhibition of cell growth incubated for 72 hrs by EZ-Cytox colorimetric assay. The class given is functional.
For assay [5], the system named is MOLM-14. Description: Antiproliferative activity against human MOLM-14 cells harboring FLT3 ITD/F691L double mutant assessed as inhibition of cell growth incubated for 72 hrs by EZ-Cytox colorimetric assay. It is filed as functional.

pIC50: −log10 of the molar value. A value given as a limit tells only on which side of the number the result lay.

Usually pIC50 stands for the IC50 on a negative log10 scale, so that one unit is a factor of ten. Broadly, the GI50 is the concentration giving 50% growth inhibition. Turning to `CN1CC(NC(=O)CO/N=C2/C(=C3/C(=O)Nc4ccccc43)Nc3ccccc32)C1`, the results for the negative logarithm of the IC50 (pIC50) in assay [1] and in assay [2] were 9.12 and 9.10, respectively. In addition, the concentration for 50% growth inhibition (GI50) was 2.61 nM in the assay with MV4-11, 17.4 nM in the assay with MOLM-14 [3] and 17.9 nM with MOLM-14 [4].
With `CN1CCN(C(=O)CO/N=C2/C(=C3/C(=O)Nc4ccc(Cl)cc43)Nc3ccccc32)CC1`, the pIC50 is 9.41 in assay [1] and 8.89 in assay [2]. Besides, the 50% growth inhibitory concentration (GI50) in the assay with MV4-11 worked out at 18.3 nM; in the assay with MOLM-14 [3], 103 nM; in the assay with MOLM-14 [4], 59.1 nM.
Regarding `CN1CCN(C(=O)CO/N=C2/C(=C3/C(=O)Nc4ccccc43)Nc3ccccc32)CC1`, the pIC50 in assay [1] is 9.28; in assay [2], 8.93. Moreover, the 50% growth inhibitory concentration (GI50) with MV4-11 worked out at 12.2 nM; in the assay with MOLM-14 [3] it was 27.8 nM; in the assay with MOLM-14 [4], 23.5 nM.
On to `O=C1Nc2ccc(F)cc2/C1=C1/Nc2ccccc2/C1=N\OCCN1CCNCC1`, for which the GI50 in the assay with MOLM-14 [5] came to 75.6 nM; in the assay on MV4-11, 3.69 nM; in the assay on MOLM-14 [3] it was 25.3 nM; in the assay on MOLM-14 [4], 23.1 nM.
As to `O=C1Nc2ccc(Cl)cc2/C1=C1/Nc2ccccc2/C1=N\OCC(=O)N1CCNCC1`, the pIC50 in assay [1] was 9.70; in assay [2], 9.57. The GI50 is 0.76 nM with MV4-11, 7.22 nM in the assay on MOLM-14 [3] and 12.7 nM in the assay on MOLM-14 [4].
On the same counts, the results for `NC1CCN(C(=O)CO/N=C2/C(=C3/C(=O)Nc4ccc(F)cc43)Nc3ccccc32)CC1` are 8.46, 8.60, 9.76 nM, 36.7 nM and 28.1 nM.
As for `O=C1Nc2ccc(Br)cc2/C1=C1/Nc2ccccc2/C1=N\OCC(=O)N1CCNCC1`, the pIC50 is 9.66 in assay [1] and 9.17 in assay [2]. Moreover, the GI50 came to 1.27 nM in the assay on MV4-11, 13.9 nM with MOLM-14 [3] and 16.1 nM in the assay on MOLM-14 [4].
In the case of `O=C1Nc2ccc(F)cc2/C1=C1/Nc2ccccc2/C1=N\OCCC(=O)N1CCNCC1`, the negative-log IC50 (pIC50) in assay [1] was 8.47; in assay [2] it was 8.91. Besides, the results for the GI50 in the assay with MV4-11, in the assay on MOLM-14 [3] and in the assay on MOLM-14 [4] were 29.5 nM, 111 nM and 112 nM, respectively.
For `O=C(CO/N=C1/C(=C2/C(=O)Nc3ccc(F)cc32)Nc2ccccc21)NC1CCNCC1`, the pIC50 in assay [1] is 8.67; in assay [2], 8.58. Further, the GI50 turned out to be 3.27 nM in the assay on MV4-11, 18.6 nM in the assay on MOLM-14 [3] and 25.8 nM in the assay with MOLM-14 [4].
Turning to `COc1ccc2c(c1)/C(=C1/Nc3ccccc3/C1=N\OCC(=O)N1CCNCC1)C(=O)N2`, the negative logarithm of the IC50 (pIC50) was 8.79 in assay [1] and 8.78 in assay [2]. The GI50 was determined as 8.39 nM in the assay on MV4-11, 40.4 nM with MOLM-14 [3] and 36.4 nM in the assay with MOLM-14 [4].
In the case of `CN1CC[C@@H](NC(=O)CO/N=C2/C(=C3/C(=O)Nc4ccccc43)Nc3ccccc32)C1`, the pIC50 was 8.66 in assay [1] and 8.85 in assay [2]. The GI50 with MV4-11 was found to be 10.5 nM; in the assay with MOLM-14 [3], 30.2 nM; with MOLM-14 [4], 28.6 nM.
In the case of `CN1CCN(C(=O)CO/N=C2/C(=C3/C(=O)Nc4ccc(F)cc43)Nc3ccccc32)CC1`, the negative logarithm of the IC50 (pIC50) is 9.46 in assay [1] and 9.03 in assay [2]. The GI50 with MV4-11 turned out to be 6.49 nM; with MOLM-14 [3], 28 nM; in the assay on MOLM-14 [4], 26.1 nM.
As for `O=C1Nc2ccccc2/C1=C1/Nc2ccccc2/C1=N\OCS(=O)(=O)N1CCNCC1`, the negative-log IC50 (pIC50) in assay [1] is 8.42.
As for `O=C1Nc2ccc(I)cc2/C1=C1/Nc2ccccc2/C1=N\OCC(=O)N1CCNCC1`, the results for the pIC50 in assay [1] and in assay [2] were 9.35 and 9.10, respectively. For the same compound, the GI50 was 3.72 nM with MV4-11, 23.7 nM in the assay with MOLM-14 [3] and 20.9 nM with MOLM-14 [4].
For `O=C(CO/N=C1/C(=C2/C(=O)Nc3ccccc32)Nc2ccccc21)NC1CCNCC1` the same measures were 8.95, 8.69, 7.01 nM, 25.6 nM and 23.8 nM.
In the case of `NC1CCN(C(=O)CO/N=C2/C(=C3/C(=O)Nc4ccc(Cl)cc43)Nc3ccccc32)CC1`, the values for the pIC50 in assay [1] and in assay [2] were 8.87 and 8.74, respectively. In addition, the GI50 amounted to 10.5 nM in the assay with MV4-11, 40.3 nM with MOLM-14 [3] and 43.2 nM with MOLM-14 [4].
On to `CN1CCC(NC(=O)CO/N=C2/C(=C3/C(=O)Nc4ccccc43)Nc3ccccc32)CC1`, for which the pIC50 was 7.27 in assay [1] and 7.80 in assay [2]. Also, the GI50 worked out at 43.6 nM in the assay on MV4-11, 133 nM in the assay with MOLM-14 [3] and 56.3 nM with MOLM-14 [4].
On to `O=C1Nc2ccc(F)cc2/C1=C1/Nc2ccccc2/C1=N\OCC(=O)N1CCNCC1`, for which the pIC50 was 9.74 in assay [1] and 9.54 in assay [2]. Also, the figures for the GI50 with MV4-11, in the assay with MOLM-14 [3] and with MOLM-14 [4] were 1.23 nM, 7.17 nM and 7.13 nM, respectively.
For `CN1CC[C@H](NC(=O)CO/N=C2/C(=C3/C(=O)Nc4ccccc43)Nc3ccccc32)C1` the same measures were 8.72, 8.70, 6.12 nM, 22.1 nM and 21.1 nM.
With `NC1CCN(C(=O)CO/N=C2/C(=C3/C(=O)Nc4ccccc43)Nc3ccccc32)CC1`, the pIC50 is 8.51 in assay [1] and 8.68 in assay [2]. Moreover, the GI50 with MV4-11 amounted to 17.3 nM; with MOLM-14 [3], 48.6 nM; with MOLM-14 [4], 38.9 nM.
Turning to `O=C1Nc2ccc(OC(F)(F)F)cc2/C1=C1/Nc2ccccc2/C1=N\OCC(=O)N1CCNCC1`, the pIC50 in assay [1] was 8.79; in assay [2], 8.44. Moreover, the GI50 in the assay on MV4-11 was 27.4 nM; with MOLM-14 [3], 71.9 nM; in the assay on MOLM-14 [4] it was 87.5 nM.
`O=C1Nc2ccccc2/C1=C1/Nc2ccccc2/C1=N\OCCC(=O)N1CCNCC1`: in assay [1], the negative logarithm of the IC50 (pIC50) is 8.54.
For `O=C1Nc2ccc(F)cc2/C1=C1/Nc2ccccc2/C1=N\OCCS(=O)(=O)N1CCNCC1`, the pIC50 in assay [1] and in assay [2] was below 7.30 in each case. Also, the GI50 in the assay on MV4-11 worked out at 842 nM.
On to `CN1CCC(NC(=O)CO/N=C2/C(=C3/C(=O)Nc4ccc(F)cc43)Nc3ccccc32)CC1`, for which the values for the pIC50 in assay [1] and in assay [2] were 7.84 and 8.14, respectively. The values for the concentration for 50% growth inhibition (GI50) with MV4-11, with MOLM-14 [3] and in the assay on MOLM-14 [4] were 38.7 nM, 75.9 nM and 60.6 nM, respectively.
Take `O=C(CO/N=C1/C(=C2/C(=O)Nc3ccc(Cl)cc32)Nc2ccccc21)NC1CCNCC1`: the pIC50 in assay [1] was 8.97; in assay [2], 8.93. Besides, the GI50 in the assay with MV4-11 was 1.08 nM; with MOLM-14 [3], 8.56 nM; with MOLM-14 [4], 35.1 nM.
For `CN1CCC(NC(=O)CO/N=C2/C(=C3/C(=O)Nc4ccc(Cl)cc43)Nc3ccccc32)CC1`, the results for the pIC50 in assay [1] and in assay [2] were 7.67 and 7.82, respectively. Besides, the values for the 50% growth inhibitory concentration (GI50) with MV4-11, in the assay on MOLM-14 [3] and with MOLM-14 [4] were 16.2 nM, 67 nM and 123 nM, respectively.
For `O=C1Nc2ccc(F)cc2/C1=C1/Nc2ccccc2/C1=N\OCS(=O)(=O)N1CCNCC1` the same measures were 8.57, 8.48, 9.58 nM, 46.2 nM and 30.8 nM.
`O=C(CO/N=C1/C(=C2/C(=O)Nc3ccccc32)Nc2ccccc21)NC1CNC1`: the pIC50 was 8.49 in assay [1] and 8.31 in assay [2]. Moreover, the GI50 in the assay with MV4-11 was 4.95 nM; with MOLM-14 [3], 19.6 nM; in the assay on MOLM-14 [4], 22.3 nM.
